Assay results: patent publication US10358446B2, “Bruton's tyrosine kinase inhibitors” (Zibo Biopolar Changsheng Pharmaceutical Co. Ltd., priority 2015, dated 2019)
Read-outs that look alike come from different tables or passages of the source.

Legend:
Btk [1] = target: Btk (Mus musculus (Mouse), UniProt P35991); assay: Btk occupancy in vivo (PBMCs or splenocytes, PCI-33380 labeling); set-up: species or system Babc/L mice; details: 25 mg/kg single oral dose, Balb/c mice, after 4 hours
Protocol: For analysis of Btk occupancy in Babc/L mice following oral dosing of compounds after 4 hours. Isolating peripheral blood mononuclear cells (PBMCs) with mouse peripheral blood separation kit (Hao Yang Biological Manufacture CO., LTD, Tianjin) were collected from Babc/L mice (1 ml blood from two mice). Spleens were processed to splenocytes followed by 5 min incubation in red blood cell lysing buffer (from mouse peripheral blood separation kit). PBMCs or splenocytes were then PCI-33380-labeled and lysates analyzed by fluorescent gel scanning as described in cellular assays.

LYN = LYN (Homo sapiens (Human), UniProt P07948); assay: LYN kinase assay (HTRF); format: biochemical; details: [ATP]=20 μM, LYN=0.12 nM
Chain of LYN (P07948 whole entry, species assumed): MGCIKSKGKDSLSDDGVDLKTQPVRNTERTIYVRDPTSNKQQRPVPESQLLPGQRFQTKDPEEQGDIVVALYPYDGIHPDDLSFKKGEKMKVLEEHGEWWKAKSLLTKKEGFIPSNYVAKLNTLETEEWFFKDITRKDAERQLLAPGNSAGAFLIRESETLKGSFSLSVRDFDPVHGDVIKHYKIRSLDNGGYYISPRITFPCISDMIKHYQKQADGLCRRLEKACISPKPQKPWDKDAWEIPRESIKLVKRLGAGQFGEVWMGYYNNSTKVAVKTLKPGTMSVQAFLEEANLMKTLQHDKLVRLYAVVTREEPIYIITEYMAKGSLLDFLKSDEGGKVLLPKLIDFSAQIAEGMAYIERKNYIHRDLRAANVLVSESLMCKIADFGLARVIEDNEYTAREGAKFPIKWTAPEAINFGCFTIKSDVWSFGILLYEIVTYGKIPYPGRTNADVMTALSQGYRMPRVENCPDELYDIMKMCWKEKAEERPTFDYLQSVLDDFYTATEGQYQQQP

Ramos cells = assay: Calcium flux assay, IgM-induced calcium influx in Ramos cells; format: cell-based; details: Ramos cells stimulated with goat anti-human IgM antibody 10 μg/ml; read-out: Ramos Ca Flux
Protocol: Calcium flux fluorescence-based assays were performed in aFDSS7000EX (Hamamatsu Photonics) fluorometric imaging plate reader according to manufacturer instructions. Compounds to be assayed were dissolved in DMSO, diluted to appropriate concentrations in Ca^2+ buffer ranging from 0 to 10 μM (at a dilution factor of 0.1), added 5 μl (6×) to each well (the final DMSO concentration was 0.1% in each well). Then 12.5 μL 2× dye loading solution (Fluo-4 NW Calcium Assay Kits, Invitrogen) was added per well of a 384-well plate. Afterwards, actively growing Ramos cells (ATCC) in RPM1640 medium supplemented with 10% FBS (Invitrogen) were washed and re-plated in assay buffer (from Fluo-4 NW Calcium Assay Kits, Invitrogen) to approximately 6.4×10^6/ml (80000 cells/12.5 μL in 384-well plates). […] The plates were now ready to be used in an experiment Immediately after the transfer and a 10-s recording of baseline fluorescence, the compound treated cells were stimulated with a goat anti-human IgM antibody (10 μg/ml; Jackson Immuno Research) and read in a FDSS for 240 seconds. Difference between the signal and that at baseline, designated adjusted relative fluorescence unit, was calculated by using a custom Excel (Microsoft, Redmond, Wash.) template to determine IgM-induced calcium influx and its inhibition by compounds. […]

BTK [2] = target: T1, BTK (Homo sapiens (Human), UniProt Q06187); assay: Btk kinase assay (HTRF); format: biochemical; details: [ATP]=80 μM, BTK=3.4 nM
How it was run: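 BTK (3.4 nM) incubated 1 h with inhibitor, 80 μM ATP and 1 μM peptide substrate in 50 mM HEPES pH 7.0 with BSA and orthovanadate. Reaction stopped with EDTA plus Eu-antibody/XL665; HTRF 665/615 ratio read after 1 h, IC50 calculated relative to no-inhibitor and no-enzyme controls.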
Target sequence in this assay (Q06187 whole entry, species assumed): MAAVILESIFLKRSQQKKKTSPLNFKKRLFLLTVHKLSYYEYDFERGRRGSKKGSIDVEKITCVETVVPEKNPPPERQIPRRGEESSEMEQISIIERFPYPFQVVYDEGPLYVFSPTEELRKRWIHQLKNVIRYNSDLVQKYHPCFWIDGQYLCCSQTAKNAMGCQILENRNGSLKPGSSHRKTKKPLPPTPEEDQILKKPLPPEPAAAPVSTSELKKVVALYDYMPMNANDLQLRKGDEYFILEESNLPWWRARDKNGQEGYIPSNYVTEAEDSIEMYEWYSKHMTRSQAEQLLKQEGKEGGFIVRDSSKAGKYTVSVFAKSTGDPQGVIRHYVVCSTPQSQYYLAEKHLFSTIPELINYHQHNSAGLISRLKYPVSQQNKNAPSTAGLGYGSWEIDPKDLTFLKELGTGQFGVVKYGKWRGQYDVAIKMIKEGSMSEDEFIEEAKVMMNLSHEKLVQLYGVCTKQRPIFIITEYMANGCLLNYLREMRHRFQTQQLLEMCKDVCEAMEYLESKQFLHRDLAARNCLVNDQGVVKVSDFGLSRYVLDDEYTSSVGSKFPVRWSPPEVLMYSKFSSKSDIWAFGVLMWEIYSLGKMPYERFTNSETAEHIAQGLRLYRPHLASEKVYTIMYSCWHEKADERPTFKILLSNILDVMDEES

BTK [3] = target: T1, BTK; assay: Btk occupancy in cellular assays (PCI-33380 labeling, Jeko-1 cells); format: cell-based; details: 100 nM compound, 1.5 h pre-incubation, PCI-33380 probe
Protocol: For PCI-33380 labeling of human B cells, 10^6 Jeko-1 cells were pre-incubated with compound for 1.5 h before labeling. Then cells were treated with PCI-33380 at 5 μM for 1 h. Washed, lysed in Ripa buffer containing sample reducing agent, and analyzed by SDS/PAGE and fluorescent gel scanning using a Typhoon scanner 9500 (GE Healthcare) (Ex, 532 nm; Em, 555 nm). The gel was then blotted and total Btk levels detected by standard Western blot with Btk antibody (CST).
Target sequence in this assay (Q06187 whole entry): as the sequence (Q06187 whole entry, species assumed) above

LCK = LCK (Homo sapiens (Human), UniProt P06239); assay: LCK kinase assay (HTRF); format: biochemical; details: [ATP]=20 μM, LCK=0.2 nM
Chain of LCK (P06239 whole entry, species assumed): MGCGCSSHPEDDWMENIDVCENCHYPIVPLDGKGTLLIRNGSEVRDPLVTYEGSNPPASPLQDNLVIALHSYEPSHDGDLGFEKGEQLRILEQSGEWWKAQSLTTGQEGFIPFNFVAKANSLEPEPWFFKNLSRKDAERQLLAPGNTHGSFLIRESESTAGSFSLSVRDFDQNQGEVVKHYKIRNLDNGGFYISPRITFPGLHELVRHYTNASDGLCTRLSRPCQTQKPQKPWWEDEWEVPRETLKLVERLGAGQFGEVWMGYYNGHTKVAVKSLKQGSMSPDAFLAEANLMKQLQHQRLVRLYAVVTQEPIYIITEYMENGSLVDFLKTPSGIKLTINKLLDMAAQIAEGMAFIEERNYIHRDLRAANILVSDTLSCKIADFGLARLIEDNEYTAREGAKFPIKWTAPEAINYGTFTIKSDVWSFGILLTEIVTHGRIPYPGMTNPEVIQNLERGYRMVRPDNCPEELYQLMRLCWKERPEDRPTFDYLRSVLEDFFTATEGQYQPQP

Chain of Btk (P35991 whole entry): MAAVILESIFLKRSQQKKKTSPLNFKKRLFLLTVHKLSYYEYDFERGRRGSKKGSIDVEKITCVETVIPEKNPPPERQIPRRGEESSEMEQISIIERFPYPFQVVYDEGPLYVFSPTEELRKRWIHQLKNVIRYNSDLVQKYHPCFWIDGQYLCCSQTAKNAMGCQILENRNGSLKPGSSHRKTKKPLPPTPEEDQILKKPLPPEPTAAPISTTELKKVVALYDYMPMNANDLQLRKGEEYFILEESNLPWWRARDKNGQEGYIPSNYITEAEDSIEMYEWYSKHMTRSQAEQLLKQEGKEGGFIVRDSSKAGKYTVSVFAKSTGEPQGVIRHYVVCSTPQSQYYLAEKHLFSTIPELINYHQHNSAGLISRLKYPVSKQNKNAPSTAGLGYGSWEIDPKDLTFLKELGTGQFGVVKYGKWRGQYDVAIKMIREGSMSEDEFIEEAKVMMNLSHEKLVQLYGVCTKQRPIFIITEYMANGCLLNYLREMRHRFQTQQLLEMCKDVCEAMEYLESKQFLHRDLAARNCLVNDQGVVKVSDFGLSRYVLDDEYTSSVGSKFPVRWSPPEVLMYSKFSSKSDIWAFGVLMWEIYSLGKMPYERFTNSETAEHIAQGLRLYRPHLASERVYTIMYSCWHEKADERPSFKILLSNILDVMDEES

| SMILES | Btk occupancy in vivo (Btk [1]) | IC50 (LYN) [nM] | IC50 (Ramos cells) [nM] | IC50 (BTK [2]; Table 2, read-out: BTK IC50) [nM] | IC50 (BTK [2]; read-out: BTK Inhibition) [nM] | occupancy of the active site of Btk (BTK [3]) | IC50 (LCK) [nM] |
| --- | --- | --- | --- | --- | --- | --- | --- |
| C=CC(=O)N1CC[C@@H](n2c(=O)n(-c3ccc(Oc4ccccc4)c(Cl)c3)c3cnccc32)C1 [Example 5, (R)-1-(1-acryloylpyrrolidin-3-yl)-3-(3-chloro-4-phenoxyphenyl)-1H-imidazo[4,5-c]pyridin-2(3H)-one] | full occupancy | ≥ 10000 | 10 to 100 | ≤ 10 | ≤ 10 | fully occupy | ≥ 10000 |
| C=CC(=O)N1CC[C@@H](n2c(=O)n(-c3ccc(Oc4cccc(C)c4)cc3)c3cnccc32)C1 [Example 4, (R)-1-(1-acryloylpyrrolidin-3-yl)-3-(4-(m-tolyloxy)phenyl)-1H-imidazo[4,5-c]pyridin-2(3H)-one] |  | 1000 to 10000 | 10 to 100 | ≤ 10 | ≤ 10 | fully occupy | 1000 to 10000 |
